The source of these data is patent US10464922B2, “Metalloenzyme inhibitor compounds” (NQP 1598 LTD., priority 2015, dated 2019).

The structures appear in SMILES notation. In brackets after ≈: the same amount, converted by molar mass. Some results are limits rather than exact numbers.

One experiment relates to C. albicans (ATCC 90028). The experiment can be described thus: Minimum inhibitory concentration, in vitro broth microdilution assay (CLSI M27-A2). The experiment is classed as cell-based, Candida albicans. As to conditions: ATCC 90028, about 50% growth reduction, 2 days at 36° C., range tested 8-0.0078 μg/mL, values given as ranges; for MIC: Candida albicans, ATCC90028, 48 h, read-out: Candida albicans MIC. In a few lines: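 CLSI M27-A2 broth microdilution: 11 two-fold DMSO dilutions into RPMI-1640+MOPS with 1×10^3–1×10^4 CFU/mL, 2 percent DMSO final. Incubated 2 days at 36° C; MIC from visual growth scoring, duplicates.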
(Dilution methods test growth across graded concentrations, often in twofold steps.)

In experiment [1] the test system is Hedgehog signaling pathway Gli Reporter-NIH3T3 cells. In words: Gli luciferase reporter assay, Hedgehog signalling pathway activity. It counts as cell-based. As to conditions: mShh 1 μg/ml, 27 hours. On the procedure:
Hedgehog signaling pathway Gli Reporter-NIH3T3 cells were cultured in DMEM medium with 10% Calf serum, 1% Penn-strep, 500 μg/ml of Geneticin.
To perform the Gli luciferase reporter assay, Gli Reporter—NIH3T3 cells were seeded at 25,000 cells per well into white clear-bottom 96-well microplate in 100 μl of growth medium. Cells were incubated at 37° C., and 5% CO2 for overnight. The next day, remove the medium from wells and add 45 μl of diluted inhibitor in assay medium (Opti-MEM Reduced Serum Medium+0.5% calf serum+1% non-essential amino acids+1 mM Na-pyruvate+10 mM HEPES+1% Pen/Strep) per well. Incubate cells at 37° C. in a CO2 incubator for 2 hours. Then add 5 μl of diluted mShh in assay medium to wells (final [mShh]=1 μg/ml). Add 50 μl of assay medium to cell-free control wells. Cells were treated for 27 hours. After treatment, cells were lysed and luciferase assay was performed using ONE-Step luciferase assay system: add 50 μl of One-Step Luciferase reagent per well and rock at room temperature for ˜30 minutes. Luminescence was measured using a luminometer (BioTek Synergy™ 2 microplate reader). Compounds of the present invention are active in blockade of hedgehog signalling.
For orientation: In a reporter assay the amount or activity of a reporter protein is the signal.

Another experiment relates to A. fumigatus. In words: A. fumigatus MIC at 100% growth inhibition (CLSI M38-A2). It counts as cell-based, Aspergillus fumigatus. As to conditions: 100% growth inhibition, range tested 8-0.0078 μg/mL, values given as ranges; for MIC: Aspergillus fumigatus, read-out: Aspergillus fumigatus MIC. On the procedure:
A. fumigatus MICs were determined at 100% growth inhibition following CLSI guidelines at a concentration range of 8-0.0078 μg/mL (CLSI M38-A2).

A word on the MIC: it is the least concentration at which growth counts as inhibited. As usually defined, the IC50 is the concentration that gives 50% inhibition. For `CC[C@@H]([C@H](C)O)n1ncn(-c2ccc(N3CCN(c4ccc(-c5ccc(C(F)(F)C(O)(Cn6cnnn6)c6ccc(F)cc6)nc5)cc4)CC3)cc2)c1=O` (single isomer, unassigned; (+)) [63(+)], the MIC in the experiment with C. albicans (ATCC 90028) was in the range of 0.01 to 0.1 µg/mL (≈ 0.0135 to 0.135 µM); in the experiment with A. fumigatus it was 0.062 to 0.25 µg/mL (≈ 0.0837 to 0.337 µM). In addition, the IC50 in experiment [1] worked out at 0.15 µM.

As for `CC[C@@H]([C@H](C)O)n1ncn(-c2ccc(N3CCN(c4ccc(-c5ccc(C(F)(F)C(O)(Cn6cnnn6)c6cccc(F)c6)nc5)cc4)CC3)cc2)c1=O` (single isomer, unassigned; (+)) [64(+)], the figures for the MIC in the experiment on C. albicans (ATCC 90028) and with A. fumigatus were 0.01 to 0.1 µg/mL (≈ 0.0135 to 0.135 µM) and 0.25 to 1 µg/mL (≈ 0.337 to 1.35 µM), respectively. In addition, the IC50 in experiment [1] worked out at 0.16 µM.

As to `CC[C@@H]([C@H](C)O)n1ncn(-c2ccc(N3CCN(c4ccc(-c5ccc(C(F)(F)C(O)(Cn6ncnc6C)c6cccc(F)c6)nc5)cc4)CC3)cc2)c1=O` (single isomer, unassigned; (+)) [85(+)], the MIC in the experiment on C. albicans (ATCC 90028) is 0.1 to 1 µg/mL (≈ 0.133 to 1.33 µM); in the experiment with A. fumigatus, over 8 µg/mL. In experiment [1], the IC50 was 0.253 µM.

On to `CC[C@@H]([C@H](C)O)n1ncn(-c2ccc(N3CCN(c4ccc(-c5ccc(C(F)(F)C(O)(Cn6cnnn6)c6ccccc6F)nc5)cc4)CC3)cc2)c1=O` (stereo partly drawn) [38(+)], for which, in the experiment with C. albicans (ATCC 90028), the “Candida albicans MIC” value is at most 0.0078 to 0.010 µg/mL. Moreover, in experiment [1], the IC50 was 0.12 µM. Further, the “Aspergillus fumigatus MIC” value in the experiment on A. fumigatus lay in the range of 0.062 to 0.25 µg/mL.

In the case of `CC[C@@H]([C@H](C)O)n1ncn(-c2ccc(N3CCN(c4ccc(-c5ccc(C(F)(F)C(O)(Cn6cnnn6)c6ccccc6F)nc5)cc4)CC3)cc2)c1=O` (stereo partly drawn) [38(−)], the “Candida albicans MIC” value in the experiment on C. albicans (ATCC 90028) is 0.10 to 1.0 µg/mL. The IC50 in experiment [1] worked out at 0.059 µM. For the same compound, the “Aspergillus fumigatus MIC” value with A. fumigatus was over 8 µg/mL.

On to `CC[C@@H]([C@H](C)O)n1ncn(-c2ccc(N3CCN(c4ccc(-c5ccc(C(F)(F)C(O)(Cn6cnc(C(F)(F)F)n6)c6ccccc6F)nc5)cc4)CC3)cc2)c1=O` (stereo partly drawn) [106(+)], for which the minimal inhibitory concentration (MIC) with C. albicans (ATCC 90028) and with A. fumigatus was over 8 µg/mL in each case. The IC50 in experiment [1] was found to be 0.31 µM.

Consider `N#Cc1ccc(N2CCN(c3ccc(-c4ccc(C(F)(F)[C@](O)(Cn5cnnn5)c5ccc(F)cc5F)nc4)cc3)CC2)nc1` [Example 12], for which the MIC fell in the range of 0.0078 to 0.01 µg/mL (≈ 0.0127 to 0.0162 µM) in the experiment on C. albicans (ATCC 90028) and 0.25 to 1 µg/mL (≈ 0.406 to 1.62 µM) with A. fumigatus. Further, the IC50 in experiment [1] is 0.4 µM.

With `CC[C@@H]([C@H](C)O)n1ncn(-c2ccc(N3CCN(c4ccc(-c5ccc(C(F)(F)[C@](O)(Cn6cnnn6)c6ccc(F)cc6F)nc5)cc4)CC3)cc2)c1=O` [Example 20, 4-(4-(4-(4-(6-((R)-2-(2,4-difluorophenyl)-1,1-difluoro-2-hydroxy-3-(1H-tetrazol-1-yl)propyl)pyridin-3-yl)phenyl)piperazin-1-yl)phenyl)-2-((2S,3S)-2-hydroxypentan-3-yl)-2,4-dihydro-3H-1,2,4-triazol-3-one], the MIC was 0.0078 to 0.01 µg/mL (≈ 0.0103 to 0.0132 µM) in the experiment with C. albicans (ATCC 90028) and 1 to 4 µg/mL (≈ 1.32 to 5.27 µM) with A. fumigatus. Also, in experiment [1], the IC50 was found to be 0.19 µM.

On to `N#Cc1ccc(CN2CCN(c3ccc(-c4ccc(C(F)(F)[C@](O)(Cn5cnnn5)c5ccc(F)cc5F)nc4)cc3)CC2=O)cc1` [Example 28, (R)-4-((4-(4-(6-(2-(2,4-difluorophenyl)-1,1-difluoro-2-hydroxy-3-(1H-tetrazol-1-yl)propyl)pyridin-3-yl)phenyl)-2-oxopiperazin-1-yl)methyl)benzonitrile], for which the MIC is 0.0078 to 0.01 µg/mL (≈ 0.0121 to 0.0156 µM) in the experiment with C. albicans (ATCC 90028) and over 8 µg/mL in the experiment with A. fumigatus. Besides, the IC50 in experiment [1] was determined as 0.58 µM.

In the case of `N#Cc1ccc(N2CCN(c3ccc(-c4ccc(C(F)(F)C(O)(Cn5cnnn5)C5CC5)nc4)cc3)CC2)cc1` (stereo not drawn) [Example 36, 4-(4-(4-(6-(2-cyclopropyl-1,1-difluoro-2-hydroxy-3-(1H-tetrazol-1-yl)propyl)pyridin-3-yl)phenyl)piperazin-1-yl) benzonitrile], the MIC in the experiment on C. albicans (ATCC 90028) was 0.0078 to 0.01 µg/mL (≈ 0.0144 to 0.0184 µM); with A. fumigatus, over 8 µg/mL. Moreover, the IC50 in experiment [1] turned out to be 0.85 µM.

Take `CC[C@@H]([C@H](C)O)n1ncn(-c2ccc(N3CCN(c4ccc(-c5ccc(C(F)(F)C(O)(Cn6cccn6)c6ccc(F)cc6F)nc5)cc4)CC3)cc2)c1=O` (stereo partly drawn) [Example 101, 4-(4-(4-(4-(6-(2-(2,4-difluorophenyl)-1,1-difluoro-2-hydroxy-3-(1H-pyrazol-1-yl)propyl)pyridin-3-yl)phenyl)piperazin-1-yl)phenyl)-2-((2S,3S)-2-hydroxypentan-3-yl)-2,4-dihydro-3H-1,2,4-triazol-3-one]: the MIC with C. albicans (ATCC 90028) was 0.1 to 1 µg/mL (≈ 0.132 to 1.32 µM); in the experiment with A. fumigatus, over 8 µg/mL. Moreover, the IC50 in experiment [1] was 0.217 µM.

Turning to `CC[C@@H]([C@H](C)O)n1ncn(-c2ccc(N3CCN(c4ccc(-c5ccc(C(F)(F)C(O)(Cn6nccn6)c6ccc(F)cc6F)nc5)cc4)CC3)cc2)c1=O` (stereo partly drawn) [Example 107, 4-(4-(4-(4-(6-(2-(2,4-difluorophenyl)-1,1-difluoro-2-hydroxy-3-(2H-1,2,3-triazol-2-yl)propyl)pyridin-3-yl)phenyl)piperazin-1-yl)phenyl)-2-((2S,3S)-2-hydroxypentan-3-yl)-2,4-dihydro-3H-1,2,4-triazol-3-one], the minimum inhibitory concentration (MIC) in the experiment with C. albicans (ATCC 90028) and with A. fumigatus was over 8 µg/mL in each case. The IC50 in experiment [1] worked out at 0.27 µM.

As to `CC[C@@H]([C@H](C)O)n1ncn(-c2ccc(N3CCN(c4ccc(-c5ccc(C(F)(F)C(O)(Cc6nnn[nH]6)c6ccccc6F)nc5)cc4)CC3)cc2)c1=O` (stereo partly drawn) [Example 115, 4-(4-(4-(4-(6-(1,1-difluoro-2-(2-fluorophenyl)-2-hydroxy-3-(1H-tetrazol-5-yl)propyl)pyridin-3-yl)phenyl)piperazin-1-yl)phenyl)-2-((2S,3S)-2-hydroxypentan-3-yl)-2,4-dihydro-3H-1,2,4-triazol-3-one], the minimum inhibitory concentration (MIC) in the experiment with C. albicans (ATCC 90028) and in the experiment with A. fumigatus was over 8 µg/mL throughout. Moreover, the IC50 in experiment [1] was determined as 0.51 µM.

Consider `CC[C@@H]([C@H](C)O)n1ncn(-c2ccc(N3CCN(c4ccc(-c5ccc(C(F)(F)C(O)(Cn6nccn6)c6ccccc6F)nc5)cc4)CC3)cc2)c1=O` (stereo partly drawn) [Example 116, 4-(4-(4-(4-(6-(1,1-difluoro-2-(2-fluorophenyl)-2-hydroxy-3-(2H-1,2,3-triazol-2-yl)propyl)pyridin-3-yl)phenyl)piperazin-1-yl)phenyl)-2-((2S,3S)-2-hydroxypentan-3-yl)-2,4-dihydro-3H-1,2,4-triazol-3-one], for which the MIC in the experiment on C. albicans (ATCC 90028) and in the experiment with A. fumigatus was over 8 µg/mL each time. Moreover, in experiment [1], the IC50 was 0.16 µM.

Consider `CC[C@@H]([C@H](C)O)n1ncn(-c2ccc(N3CCN(c4ccc(-c5ccc(C(F)(F)C(O)(Cn6cccn6)c6ccccc6F)nc5)cc4)CC3)cc2)c1=O` (stereo partly drawn) [Example 117], for which the MIC with C. albicans (ATCC 90028) and in the experiment with A. fumigatus was over 8 µg/mL in each case. Besides, the IC50 in experiment [1] was found to be 0.092 µM.

Regarding `CC[C@@H]([C@H](C)O)n1ncn(-c2ccc(N3CCN(c4ccc(-c5ccc(C(F)(F)C(O)(Cn6nccn6)c6cccc(Cl)c6)nc5)cc4)CC3)cc2)c1=O` (stereo partly drawn) [Example 125], the MIC with C. albicans (ATCC 90028) and in the experiment on A. fumigatus was over 8 µg/mL throughout. Further, the IC50 in experiment [1] was determined as 0.092 µM.

Take `CC[C@@H]([C@H](C)O)n1ncn(-c2ccc(N3CCN(c4ccc(-c5ccc(C(F)(F)C(O)(Cn6cccn6)c6cccc(Cl)c6)nc5)cc4)CC3)cc2)c1=O` (stereo partly drawn) [Example 126, 4-(4-(4-(4-(6-(2-(3-chlorophenyl)-1,1-difluoro-2-hydroxy-3-(1H-pyrazol-1-yl)propyl)pyridin-3-yl)phenyl)piperazin-1-yl)phenyl)-2-((2S,3S)-2-hydroxypentan-3-yl)-2,4-dihydro-3H-1,2,4-triazol-3-one]: the minimum inhibitory concentration (MIC) in the experiment with C. albicans (ATCC 90028) is 1 to 8 µg/mL (≈ 1.32 to 10.6 µM); in the experiment with A. fumigatus, over 8 µg/mL. The IC50 in experiment [1] was 0.19 µM.
